Measurements published in patent US20250312462A1, “PAK1 DEGRADERS AND METHODS OF USE THEREOF” (INSTITUTE FOR CANCER RESEARCH D/B/A THE RESEARCH INSTITUTE …, priority 2022, published 2025).

Legend:
MARK3 = MARK3 (Homo sapiens, UniProt P27448); assay: KINOMEscan; details: read-out: Percent Control
Description: (§1) The kinase engagement assay (KINOMEscan®) was performed by DiscoverX assessing binding abilities toward a set of kinases.

FGFR3(G697C) = FGFR3(G697C) (Homo sapiens, UniProt P22607, G697C); assay: KINOMEscan; details: read-out: Percent Control
Description: as §1

ROS1 = ROS1 (Homo sapiens, UniProt P08922); assay: KINOMEscan; details: read-out: Percent Control
Description: as §1

STK36 = STK36 (Homo sapiens, UniProt Q9NRP7); assay: KINOMEscan; details: read-out: Percent Control
Description: as §1

GAK = GAK (Homo sapiens, UniProt O14976); assay: KINOMEscan; details: read-out: Percent Control
Description: as §1

ITK = ITK (Homo sapiens, UniProt Q08881); assay: KINOMEscan; details: read-out: Percent Control
Chain of ITK (Q08881 whole entry): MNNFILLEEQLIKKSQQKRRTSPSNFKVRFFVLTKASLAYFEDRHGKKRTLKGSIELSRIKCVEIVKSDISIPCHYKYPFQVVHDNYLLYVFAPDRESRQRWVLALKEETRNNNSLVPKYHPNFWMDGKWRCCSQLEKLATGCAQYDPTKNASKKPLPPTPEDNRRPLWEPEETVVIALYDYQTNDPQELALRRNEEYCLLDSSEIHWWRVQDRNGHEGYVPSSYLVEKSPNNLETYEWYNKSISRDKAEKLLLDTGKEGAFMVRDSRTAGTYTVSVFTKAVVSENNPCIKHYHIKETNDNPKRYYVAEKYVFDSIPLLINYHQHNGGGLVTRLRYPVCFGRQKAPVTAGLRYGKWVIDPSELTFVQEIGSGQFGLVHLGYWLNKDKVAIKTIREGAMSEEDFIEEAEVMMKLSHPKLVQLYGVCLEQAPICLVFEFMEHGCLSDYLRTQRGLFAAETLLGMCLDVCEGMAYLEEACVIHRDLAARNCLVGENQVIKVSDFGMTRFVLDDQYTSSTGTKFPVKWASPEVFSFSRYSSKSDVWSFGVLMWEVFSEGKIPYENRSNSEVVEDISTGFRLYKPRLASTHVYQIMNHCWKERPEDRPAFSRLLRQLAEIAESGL
Description: as §1

EPHA3 = EPHA3 (Homo sapiens, UniProt P29320); assay: KINOMEscan; details: read-out: Percent Control
Description: as §1

PKNB(M. tuberculosis) = target: T1, PKNB(M. tuberculosis) (Mycobacterium tuberculosis, UniProt P9WI81); assay: KINOMEscan; type: binding; details: read-out: Percent Control
T1 construct: purchased DiscoverX

NEK1 = NEK1 (Homo sapiens, UniProt Q96PY6); assay: KINOMEscan; details: read-out: Percent Control
Description: as §1

PRKD1 = PRKD1 (Homo sapiens, UniProt Q15139); assay: KINOMEscan; details: read-out: Percent Control
Description: as §1

ERK3 = ERK3 (Homo sapiens, UniProt Q16659); assay: KINOMEscan; details: read-out: Percent Control
Description: as §1

CAMK1G = CAMK1G (Homo sapiens, UniProt Q96NX5); assay: KINOMEscan; details: read-out: Percent Control
Chain of CAMK1G (Q96NX5 whole entry): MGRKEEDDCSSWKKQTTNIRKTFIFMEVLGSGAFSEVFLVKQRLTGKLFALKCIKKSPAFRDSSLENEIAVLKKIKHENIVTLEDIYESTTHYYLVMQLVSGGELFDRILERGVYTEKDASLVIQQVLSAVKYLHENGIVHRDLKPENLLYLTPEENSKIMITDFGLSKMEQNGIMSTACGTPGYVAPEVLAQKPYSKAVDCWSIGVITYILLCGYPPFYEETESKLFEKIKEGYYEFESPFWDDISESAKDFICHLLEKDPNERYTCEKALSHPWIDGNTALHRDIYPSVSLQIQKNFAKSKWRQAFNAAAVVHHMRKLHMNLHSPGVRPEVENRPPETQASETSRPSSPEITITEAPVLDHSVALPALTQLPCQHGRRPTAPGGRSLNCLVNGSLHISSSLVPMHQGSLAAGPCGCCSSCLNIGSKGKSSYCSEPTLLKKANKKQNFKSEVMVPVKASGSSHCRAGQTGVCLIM
Description: as §1

MAP3K3 = MAP3K3 (Homo sapiens, UniProt Q99759); assay: KINOMEscan; details: read-out: Percent Control
Description: as §1

EPHB2 = EPHB2 (Homo sapiens, UniProt P29323); assay: KINOMEscan; details: read-out: Percent Control
Description: as §1

RAF1 = RAF1 (Homo sapiens, UniProt P04049); assay: KINOMEscan; details: read-out: Percent Control
Description: as §1

EGFR(E746-A750del) = EGFR(E746-A750del) (Homo sapiens, UniProt P00533, DEL746-750); assay: KINOMEscan; details: read-out: Percent Control
Description: as §1

RIPK1 = RIPK1 (Homo sapiens, UniProt Q13546); assay: KINOMEscan; details: read-out: Percent Control
Description: as §1

FLT4 = FLT4 (Homo sapiens, UniProt P35916); assay: KINOMEscan; details: read-out: Percent Control
Description: as §1

HIPK2 = HIPK2 (Homo sapiens, UniProt Q9H2X6); assay: KINOMEscan; details: read-out: Percent Control
Description: as §1

Nluc-PAK1 = target: T2, Nluc-PAK1 (Homo sapiens, UniProt Q13153+Q96SW2); assay: Nluc-PAK1 luciferase assay in HEK293 cells; type: cell-based
T2 construct: […]; expressed in transfected cells
T2 sequence (Q13153 whole entry): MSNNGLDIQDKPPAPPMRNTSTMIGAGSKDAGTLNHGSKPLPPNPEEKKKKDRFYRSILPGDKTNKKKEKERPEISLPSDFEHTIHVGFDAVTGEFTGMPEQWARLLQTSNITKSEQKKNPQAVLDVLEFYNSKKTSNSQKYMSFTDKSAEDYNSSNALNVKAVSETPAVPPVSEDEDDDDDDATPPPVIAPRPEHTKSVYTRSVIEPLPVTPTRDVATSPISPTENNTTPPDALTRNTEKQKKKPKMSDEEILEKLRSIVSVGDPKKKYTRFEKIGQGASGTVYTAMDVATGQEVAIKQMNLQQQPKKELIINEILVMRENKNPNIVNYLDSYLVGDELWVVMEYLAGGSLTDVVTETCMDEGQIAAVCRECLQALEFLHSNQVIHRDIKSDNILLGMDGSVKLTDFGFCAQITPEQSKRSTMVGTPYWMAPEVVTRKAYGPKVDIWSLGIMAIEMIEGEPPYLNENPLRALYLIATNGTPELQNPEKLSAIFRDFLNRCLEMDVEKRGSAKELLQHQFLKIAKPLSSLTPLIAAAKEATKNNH
T2 sequence (Q96SW2 whole entry): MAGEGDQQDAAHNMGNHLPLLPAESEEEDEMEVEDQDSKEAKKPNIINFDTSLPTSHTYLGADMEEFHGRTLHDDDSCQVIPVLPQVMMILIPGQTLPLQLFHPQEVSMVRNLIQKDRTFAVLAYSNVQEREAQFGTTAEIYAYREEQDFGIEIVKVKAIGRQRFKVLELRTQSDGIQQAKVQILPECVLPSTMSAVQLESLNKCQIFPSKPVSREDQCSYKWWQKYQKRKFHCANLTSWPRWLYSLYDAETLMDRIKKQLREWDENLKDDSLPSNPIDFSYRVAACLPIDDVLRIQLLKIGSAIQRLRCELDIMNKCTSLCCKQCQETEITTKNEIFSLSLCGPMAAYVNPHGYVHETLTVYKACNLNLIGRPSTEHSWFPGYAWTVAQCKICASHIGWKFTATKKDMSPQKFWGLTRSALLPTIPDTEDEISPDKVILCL
T2 sequence (Q16531 whole entry partner): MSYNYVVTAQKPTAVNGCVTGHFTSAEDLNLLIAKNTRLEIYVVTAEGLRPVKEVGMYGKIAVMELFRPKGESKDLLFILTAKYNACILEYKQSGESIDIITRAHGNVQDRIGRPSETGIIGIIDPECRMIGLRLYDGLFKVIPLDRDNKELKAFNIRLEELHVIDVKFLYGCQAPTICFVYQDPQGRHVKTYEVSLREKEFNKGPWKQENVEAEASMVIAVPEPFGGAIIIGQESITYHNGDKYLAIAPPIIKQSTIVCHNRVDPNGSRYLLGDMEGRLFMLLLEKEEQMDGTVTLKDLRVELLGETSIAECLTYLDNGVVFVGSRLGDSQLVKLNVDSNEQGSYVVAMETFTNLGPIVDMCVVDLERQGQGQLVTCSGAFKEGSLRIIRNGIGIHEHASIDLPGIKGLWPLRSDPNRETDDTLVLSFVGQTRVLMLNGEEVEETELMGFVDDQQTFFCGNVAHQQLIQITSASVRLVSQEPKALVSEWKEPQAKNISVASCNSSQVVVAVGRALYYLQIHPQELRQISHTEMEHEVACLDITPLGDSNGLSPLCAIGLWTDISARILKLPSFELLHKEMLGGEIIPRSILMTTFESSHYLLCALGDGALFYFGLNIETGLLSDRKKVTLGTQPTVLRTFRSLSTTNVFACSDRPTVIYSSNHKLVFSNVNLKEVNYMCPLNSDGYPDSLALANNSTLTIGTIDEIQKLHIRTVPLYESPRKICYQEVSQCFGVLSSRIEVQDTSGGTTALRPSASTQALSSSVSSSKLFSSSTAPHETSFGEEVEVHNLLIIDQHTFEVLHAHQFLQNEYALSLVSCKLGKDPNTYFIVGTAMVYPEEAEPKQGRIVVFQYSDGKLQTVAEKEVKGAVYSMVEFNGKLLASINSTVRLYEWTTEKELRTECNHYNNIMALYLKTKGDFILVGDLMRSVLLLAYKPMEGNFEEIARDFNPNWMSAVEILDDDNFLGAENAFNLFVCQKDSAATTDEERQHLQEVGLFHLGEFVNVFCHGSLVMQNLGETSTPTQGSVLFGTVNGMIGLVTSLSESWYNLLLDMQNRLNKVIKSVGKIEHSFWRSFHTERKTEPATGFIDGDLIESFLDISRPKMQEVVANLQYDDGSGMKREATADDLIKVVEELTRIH
Description: MCF7 ([…], CVCL_0031) were cultured in high-glucose DMEM medium (Gibco) supplemented with 10% fetal bovine serum (HyClone), 2 mM L-glutamine and 100 U/ml penicillin/streptomycin (Gibco). MOLT4 ([…], CVCL_0013) were cultured in RPMI 1640 medium (Gibco) supplemented with 10% fetal bovine serum and 2 mM L-glutamine. OVCAR3 ([…], CVCL_0465), Hey A8 ([…], CVCL_8878) and OMM1 ([…], CVCL_6939) were cultured in RPMI 1640 medium (Gibco) supplemented with 10% fetal bovine serum, 2 mM L-glutamine and 100 U/ml penicillin/streptomycin (Gibco). All cell lines were cultured at 37° C. in a humidified 5% CO2 incubator. HEK293 cells stably expressing Nluc-PAK1 were constructed by transfecting with the pFN31K Nluc-PAK1 expression vector (0.5 μg DNA per well) in 12-well plates using Lipofectamine™ 3000 (Invitrogen) according to the manufacturer's protocol. Transfected Nluc-PAK1 cells were cultured for 1 week in DMEM medium containing G418 (2 mg mL^−1) to select stable clones.
HEK293 cells stably expressing pFN31K-Nluc-PAK1 were assayed for luciferase activity according to the manufacturer's Nano-Glo® Live Cell Assay System protocol (Promega). In brief, 25 μl of Nano-Glo® Live Cell Reagent was added per well and the plate was gently mixed by hand, then placed in a 37° C. luminometer for 10 minutes.
To better quantify the effect of degrader treatment, HEK293 cells were transfected with an expression vector encoding nano-luciferase (Nluc)-tagged PAK1. The Nluc tag allows for luciferase-based quantitation of protein expression (England, et al. (2016) Bioconjug. Chem., 27:1175-1187). Nluc-PAK1 cells were treated with BJG-05-039 or its N-methylated analog, BJG-05-098, and PAK1 expression was assessed (FIG. 2D).

[1] = target: JAK1(JH1domain-catalytic) (Homo sapiens, UniProt P23458); assay: KINOMEscan; details: read-out: Percent Control
Chain of JAK1(JH1domain-catalytic) (P23458 875-1153 limits assumed): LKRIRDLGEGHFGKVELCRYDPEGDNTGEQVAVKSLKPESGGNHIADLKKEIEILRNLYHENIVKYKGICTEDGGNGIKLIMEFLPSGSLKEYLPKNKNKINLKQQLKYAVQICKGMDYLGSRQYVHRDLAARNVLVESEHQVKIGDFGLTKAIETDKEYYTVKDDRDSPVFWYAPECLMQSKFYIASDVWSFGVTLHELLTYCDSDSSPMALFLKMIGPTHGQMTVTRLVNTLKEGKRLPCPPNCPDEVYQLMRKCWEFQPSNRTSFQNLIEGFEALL
Description: as §1

PIK3CA(I800L) = PIK3CA(I800L) (Homo sapiens, UniProt P42336, I800L); assay: KINOMEscan; details: read-out: Percent Control
Description: as §1

PIM1 = PIM1 (Homo sapiens, UniProt P11309); assay: KINOMEscan; details: read-out: Percent Control
Description: as §1

[2] = target: JAK1(JH2domain-pseudokinase) (Homo sapiens, UniProt P23458); assay: KINOMEscan; details: read-out: Percent Control
Description: as §1

MAP3K15 = MAP3K15 (Homo sapiens, UniProt Q6ZN16); assay: KINOMEscan; details: read-out: Percent Control
Description: as §1

TEC = TEC (Homo sapiens, UniProt P42680); assay: KINOMEscan; details: read-out: Percent Control
Chain of TEC (P42680 whole entry): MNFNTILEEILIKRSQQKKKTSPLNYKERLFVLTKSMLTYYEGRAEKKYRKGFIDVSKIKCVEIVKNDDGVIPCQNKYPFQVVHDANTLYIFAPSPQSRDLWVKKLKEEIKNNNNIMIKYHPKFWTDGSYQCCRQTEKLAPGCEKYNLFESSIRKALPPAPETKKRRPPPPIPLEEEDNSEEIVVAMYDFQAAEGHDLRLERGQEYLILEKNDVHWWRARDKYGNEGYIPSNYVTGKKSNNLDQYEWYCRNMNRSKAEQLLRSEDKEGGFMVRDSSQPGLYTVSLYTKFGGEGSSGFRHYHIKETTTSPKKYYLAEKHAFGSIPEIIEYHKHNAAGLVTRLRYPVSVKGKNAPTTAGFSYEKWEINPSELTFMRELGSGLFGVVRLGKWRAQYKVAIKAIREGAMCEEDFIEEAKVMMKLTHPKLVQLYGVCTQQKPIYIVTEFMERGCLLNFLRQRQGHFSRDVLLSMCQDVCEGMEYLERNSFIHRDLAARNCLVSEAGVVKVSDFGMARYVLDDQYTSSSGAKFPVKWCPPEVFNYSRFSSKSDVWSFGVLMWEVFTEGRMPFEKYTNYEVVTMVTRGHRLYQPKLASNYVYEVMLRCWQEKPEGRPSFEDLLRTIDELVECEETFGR
Description: as §1

MAPKAPK5 = MAPKAPK5 (Homo sapiens, UniProt Q8IW41); assay: KINOMEscan; details: read-out: Percent Control
Description: as §1

Chain of FGFR3(G697C) (P22607 23-806 G697C): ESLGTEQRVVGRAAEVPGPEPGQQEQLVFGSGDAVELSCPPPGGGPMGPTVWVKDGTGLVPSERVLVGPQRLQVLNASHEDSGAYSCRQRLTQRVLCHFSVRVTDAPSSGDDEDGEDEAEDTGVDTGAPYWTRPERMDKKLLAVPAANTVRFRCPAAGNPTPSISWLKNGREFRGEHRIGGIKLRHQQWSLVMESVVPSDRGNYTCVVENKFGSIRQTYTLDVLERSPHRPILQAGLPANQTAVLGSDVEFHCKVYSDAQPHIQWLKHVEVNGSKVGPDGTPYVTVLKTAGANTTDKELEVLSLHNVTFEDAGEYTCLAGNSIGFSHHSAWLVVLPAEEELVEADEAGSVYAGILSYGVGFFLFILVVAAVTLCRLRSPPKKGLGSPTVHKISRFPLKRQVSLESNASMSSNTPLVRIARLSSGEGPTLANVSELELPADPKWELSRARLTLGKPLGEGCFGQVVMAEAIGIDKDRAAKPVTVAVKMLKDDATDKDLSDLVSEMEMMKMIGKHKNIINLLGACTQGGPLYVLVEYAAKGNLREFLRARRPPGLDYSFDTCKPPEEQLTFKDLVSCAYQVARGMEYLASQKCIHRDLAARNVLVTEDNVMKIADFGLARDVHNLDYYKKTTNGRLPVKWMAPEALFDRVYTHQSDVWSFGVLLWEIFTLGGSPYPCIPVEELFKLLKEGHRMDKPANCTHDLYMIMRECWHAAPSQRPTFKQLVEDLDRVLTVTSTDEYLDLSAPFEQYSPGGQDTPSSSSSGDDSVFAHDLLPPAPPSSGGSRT

`O=C1CCC(N2C(=O)c3cccc(NCCCCCCCCNC(=O)N4CC[C@H](NC5=Nc6cc(F)ccc6N(CC(F)F)c6ccc(Cl)cc65)C4)c3C2=O)C(=O)N1` (stereo partly drawn) [BJG-05-039, (3S)-3-((2-Chloro-5-(2,2-difluoroethyl)-8-fluoro-5H-dibenzo[b,e][1,4]diazepin-11-yl)amino)-N-(8-((2-(2,6-dioxopiperidin-3-yl)-1,3-dioxoisoindolin-4-yl)amino)octyl)pyrrolidine-1-carboxamide] was tested, and the remaining binding at 10 µM (MARK3) was 83%, the remaining binding at 10 µM (FGFR3(G697C)) was 95% and the remaining binding at 10 µM (ROS1) was 94%. The remaining binding at 10 µM (STK36) was 82%, the remaining binding at 10 µM (GAK) was 56% and the remaining binding at 10 µM (ITK) was 91%. The remaining binding at 10 µM (EPHA3) was 47%, the remaining binding at 10 µM (PKNB(M. tuberculosis)) was 72% and the remaining binding at 10 µM (NEK1) was 83%. For the same compound, the remaining binding at 10 µM (PRKD1) was 81%, the remaining binding at 10 µM (ERK3) was 64% and the remaining binding at 10 µM (CAMK1G) was 63%. It also gave a remaining binding at 10 µM (MAP3K3) of 100%, a remaining binding at 10 µM (EPHB2) of 74% and a remaining binding at 10 µM (RAF1) of 97%. For the same compound, the remaining binding at 10 µM (EGFR(E746-A750del)) was 100%, the remaining binding at 10 µM (RIPK1) was 65% and the remaining binding at 10 µM (FLT4) was 86%. The remaining binding at 10 µM (HIPK2) was 100%, the “Reduction in PAK1 expression” value (Nluc-PAK1; 10 nM, HEK293 Nluc-PAK1 cells, 24 hours) was “approximately 70%” and the “Concentration of half-maximal degradation of PAK1” value (Nluc-PAK1; HEK293 Nluc-PAK1 cells) was “low nM concentrations”. The “Loss of the PAK1 protein” value (Nluc-PAK1; in the absence of drug efflux inhibitors) was 70%, the remaining binding at 10 µM [1] was 42% and the remaining binding at 10 µM (PIK3CA(I800L)) was 100%. For the same compound, the remaining binding at 10 µM (PIM1) was 75%, the remaining binding at 10 µM [2] was 100% and the remaining binding at 10 µM (MAP3K15) was 99%. It also gave a remaining binding at 10 µM (TEC) of 82% and a remaining binding at 10 µM (MAPKAPK5) of 100%.
